Reference: patent US12115147B2, “Formulations and methods related to eye irritation” (Lebrun Labs LLC, priority 2020, dated 2024)
Read-outs that look alike come from different tables or passages of the source.

Tests used:
[1] = OS2 (OPTISAFE2), OPTISAFE formulation with antioxidants; settings: for OS2 Cons: majority prediction of the triplicate assays; for OS2 R3: repeat 3, with antioxidants
[2] = no antioxidants, predicted GHS class, cited from earlier work
rabbit eye = settings: cited from earlier work
[3] = pH 6.36
[4] = Table 7B, repeat 1, with antioxidants, predicted GHS class
[5] = Table 7B, consensus of past application domain study
[6] = Table 7B, based on the Draize data
[7] = Table 7A, consensus of past transferability study
[8] = Table 7A, based on the Draize data

Row | OS2 Cons [3] | OS2 R3 [3] | Structure (SMILES) | OS2 Cons ([1]; Table 7B) | OS2 R1 [1, 4] | OS2 R3 ([1]; Table 7B, predicted GHS class) | OS Cons [2, 5] | In vivo GHS (rabbit eye; [6]) | also measured
1 |  |  | CC(C)=O [Acetone] | 2 | 2 | 2 | 2 | 2A (2A (reversal by 7 days)) | 
2 | 2 | 2 | CCCCCCCCO [n-Octanol] |  |  |  | 2 | 2A (2A (reversal by 7 days)) | OS2 R1 [3]: 2; OS2 score average [3]: 19.1; OS2 scores ranged from [3]: 16.5-22.8; Score = Average score [3]: 19.1; known ocular irritancy (FIG. 4 legend) (rabbit eye; rabbit, in vivo): Irritants
3 | 1 | 1 | COC(=O)CC#N [Methyl cyanoacetate] |  |  |  |  |  | 0S2 R1 [3]: 1; OS Cons [2, 7]: 1; In vivo GHS (rabbit eye; [8]): 2A (2A (reversal by 7 days))
4 | 1 | 1 | O=C(Cl)c1c(Cl)cccc1Cl [2,6-Dichlorobenzoyl chloride] |  |  |  | 1 | 2A (2A (reversal by 7 days)) | OS2 R1 [3]: 1
5 |  |  | Cc1ncnc2nc[nH]c12 [6-Methyl purine] | 2/1 | 2/1 | 1 |  | 2B (2B (reversal by 14 days)) | 
6 | 2 | 2 | CCCCC(CC)COC(=O)CC(C(=O)OCC(CC)CCCC)S(=O)(=O)[O-].[Na+] (centres unmarked) [Butanedioic acid, sulfo-, 1,4-bis(2-ethylhexyl) ester, sodium salt] |  |  |  | 2 | 1 (1 (no reversal by 21 days)) | OS2 R1 [3]: 2
7 | 2 | 2 | OCc1cccc(Oc2ccccc2)c1 [3-Phenoxybenzyl alcohol] |  |  |  | 2 |  | OS2 R1 [3]: 2
8 |  |  | CC(C)(O)CCC(C)(C)O | 1 | 2 | 1 |  |  | 
9 |  |  | O.O.O.O.[Na+].[O-]B1OO1 [Sodium perborate tetrahydrate] | 1 | 1 | 1 |  |  | 
10 | 2 | 2 | C=C1C2CCC(C2)C1(C)C (centres unmarked) [Camphene] |  |  |  |  |  | 0S2 R1 [3]: 2
11 |  |  | CCCOCC(C)O (centres unmarked) [Propasol solvent P] |  |  |  |  |  | OS2 Cons ([1]; Table 7A): 2; 0S2 R1 ([1]; Table 7A, repeat 1, with antioxidants, predicted GHS class): 2; OS2 R3 ([1]; Table 7A, predicted GHS class): 2; OS Cons [2, 7]: 2; In vivo GHS (rabbit eye; [8]): 2A (2A (reversal by 7 days))
12 |  |  | O=C([O-])CCl.[Na+] [Sodium chloroacetate] |  |  |  |  |  | In vivo GHS (rabbit eye; [8]): 2B (2B (reversal by 14 days))
13 |  |  | Nc1ncccc1O [2-Amino-3-pyridinol] |  |  |  | CNM | 2A (2A (reversal by 7 days)) | 
14 | 2 | 2 | CC(C)O [Isopropanol] |  |  |  | 2 | 2A (2A (reversal by 7 days)) | OS2 R1 [3]: 2
15 |  |  | S=C([S-])NCCNC(=S)[S-].[Mn+2] [Maneb (solid), Maneb] |  |  |  |  |  | In vivo GHS (rabbit eye; rabbit, in vivo): 2B (key: NC (not classified as an irritant); 2A (reversal by 7 days); 2B (reversal by 14 days); 1 (no reversal by 21 days))
16 |  |  | CCOC(=O)C(C)C(C)=O (centres unmarked) [Ethyl-2-methyl acetoacetate] | 1 | 1 | 1 | 1 | 2B (2B (reversal by 14 days)) | 
17 |  |  | O=C(Nc1ccc(Cl)cc1)Nc1ccc(Cl)c(Cl)c1 [Triclocarban] | CNM | CNM | CNM | CNM |  | 
18 |  |  | CCCCCCBr [n-Hexyl bromide] |  |  |  |  |  | known ocular irritancy (FIG. 4 legend) (rabbit eye; rabbit, in vivo): Nonirritants
19 |  |  | c1c[nH]cn1 [Imidazole] |  |  |  |  |  | In vivo GHS (rabbit eye; rabbit, in vivo): 1 (key: NC (not classified as an irritant); 2A (reversal by 7 days); 2B (reversal by 14 days); 1 (no reversal by 21 days))

Row | Structure (SMILES) | OS2 Cons [3] | OS2 R3 [3] | OS2 Cons ([1]; Table 7B) | OS2 R1 [1, 4] | OS2 R3 ([1]; Table 7B, predicted GHS class) | OS Cons [2, 5] | In vivo GHS (rabbit eye; [6]) | also measured
20 | CC(C)C=O [Isobutyraldehyde] | 1 | 1 |  |  |  |  |  | In vivo GHS (rabbit eye; rabbit, in vivo): 2B (key: NC (not classified as an irritant); 2A (reversal by 7 days); 2B (reversal by 14 days); 1 (no reversal by 21 days))
